In the case of `O=C1NCc2c1c(O)nc1ccccc21`, the melting point (commonly the temperature of the solid-liquid transition) lay within 340 to 350 °C. Compound `CCCCCCNC(=O)[C@@H]1CCC(=O)N1` returned a melting point of 95 °C.

For `COc1ccc(NCCCCNC(C)=O)c2c1C(=O)c1ccccc1C2=O`, the melting point fell in the range of 151 to 153 °C. Take `NC(=O)N1C(=O)C(C(=O)c2ccc(Br)s2)c2cc(Cl)ccc21` (stereo unspecified): the melting point fell in the range of 228 to 229 °C. Under `COc1ccc(OCC(=O)c2ccccc2)c([N+](=O)[O-])c1` stands 88 to 90 °C; under `CCc1cc(C(=O)c2ccccc2Cl)c(-n2c(CNC(=O)c3cc4ccccc4n3CC(=O)O)nnc2C2CCCCC2)s1`, 159 to 162 °C; under `COC(=O)N(C)CCCCC(=O)OC[C@@H]1CC(c2ccc(-c3ccc(N4C[C@H](Cn5ccnn5)OC4=O)cc3F)cn2)=NO1`, 82 °C. Under `ClCCCCOc1ccc2ccccc2c1` stands 112 °C; under `CCc1ccc(C(=NO)c2ccc(Cl)cc2)c(O)c1`, 159 to 161 °C; under `C/C(NCC(C)(C)C)=C(\C#N)C(N)=S`, 143 to 144 °C. Under `CCn1c(=O)c(-c2cc(OC)cc(OC)c2)cc2cnc(S(C)=O)nc21` (stereo unspecified) stands 114 to 116 °C; under `CC(=O)CCCCCNC(=O)Nc1ccccc1CCc1cc(C(C)(C)C)c(O)c(C(C)(C)C)c1`, 73 to 76 °C; under `COC(=O)Cc1ccc(O)c(NC(=O)C(C)(C)C)c1`, 112 to 113 °C. For `O=C(NCCCl)Nc1ccc(CCCc2ccccc2OCc2ccccc2)cc1`, the melting point lay in the range of 120 to 121 °C. The figure for `COc1ccc2[nH]cc(CC(=O)N3C[C@@H]4[C@H](C3)[C@@](O)(c3ccccc3OC)[C@H](O)CC4(c3ccccc3)c3ccccc3)c2c1` (racemic) is 204 to 206 °C; for `CC(C)(Oc1ccc(OCc2nc(-c3ccc(C(C)(C)C)cc3)no2)cc1)C(=O)O` it is 138 to 140 °C; for `SCC1SC(CS)SC(CS)S1` (stereo unspecified) it is 42 to 46 °C. Under `CCOc1nsc(NC(=O)NC)c1C#N` stands 244 °C; under `CC(C)(C)OC(=O)NCCCCC1C(=O)OC(C)(C)OC1=O`, 112 to 113 °C. With `COc1ccc(-c2nc3ccc(C(C)(C)CNC(=O)C(C)C)cc3[nH]2)cc1`, the melting point was in the range of 218 to 220 °C. The figure for `CC(C)n1nc(-c2sc(N)nc2-c2cccc(F)c2)ccc1=O` is 237 to 238 °C. The figure for `O=C(O)c1cn(C2CC2)c2cc(N3CCN(C(=O)OCCn4cccn4)CC3)c(F)cc2c1=O` is 205 to 208 °C; for `O=C(O)COC1CCN(Cc2ccc3c(c2)Nc2nccnc2S3)CC1` it is 204 to 207 °C; for `Cc1ccc(C(NC2CCNCC2)(Oc2ccc(OCc3ccccc3)cc2)C(C)O)nc1` (stereo unspecified) it is 123 to 125 °C.

`FC(F)(F)c1ccc2nnc(-c3cccc(Cl)c3Cl)n2c1` showed a melting point of 100 to 101 °C.

In turn, `COc1cn(-c2ccc(N3CC=CC3)cc2F)nc(-c2ccnn2-c2ccccc2)c1=O` had a melting point of 204 to 207 °C. In the case of `CCN(c1nc(C)cc(C(=O)c2ccc3[nH]ccc3c2)n1)c1ccc(C(C)C)cc1Br`, the melting point fell in the range of 77 to 79 °C.

`CCCCCCCCCCCCCCOc1ccccc1NC(=O)c1cc(Sc2nnnn2-c2cccc(C(=O)OCC)c2)c2ccccc2c1O`: the melting point lay within 88 to 90 °C. The figure for `COc1ccnc(CSc2nc3cc4c(cc3[nH]2)OCO4)c1OC` is 155 to 157 °C.

In the case of `CCCCCCCN(O)C(=O)N(C)C`, the melting point was in the range of 30 to 31 °C.

For the compound `Cc1ccccc1NC(=O)c1c(Cl)cccc1Cl`, the melting point is 182 °C. In the case of `Cc1c(OCCCO)ccnc1CO`, the melting point was 65 to 70 °C. Under `Clc1ccc2c(c1)N=C(N1CCN(CC3CC3)CC1)c1ccccc1N2` stands 148 to 151 °C. The figure for `Cc1ccccc1NNC(N)=S` is 158 to 160 °C; for `CC(C)(C)c1ccccc1C(=O)O` it is 38.5 to 40.5 °C; for `NCCC(O)c1ccccc1` (stereo unspecified) it is 92 to 94 °C. The figure for `CN(O)C(=O)c1ccc(C=Cc2ccccn2)cc1` is 135 to 138 °C; for `CCC(C)(C)c1ccc(OCC(=O)Nc2cccc(C(C)=O)c2)c(C(C)(C)CC)c1` it is 135 °C. Compound `CCN(CC)C(=O)c1cccs1` gave a melting point of 50 to 52 °C. Under `COc1ccc(-c2nc3cccnc3n2CC(=O)O)cc1` stands 260 to 263 °C. In turn, `Nc1nc2ccc(OCc3c(F)cccc3F)cc2s1` gave a melting point of 178 °C. The figure for `O=c1c(-c2ccccc2)c[nH]n1-c1cccc(C(F)(F)F)c1` is 210 to 213 °C. Consider `CCc1nc(N)nc(O)c1I`, for which the melting point lay in the range of 199 to 200 °C.

Compound `Cn1c(CCOc2ccc(CC3SC(=O)NC3=O)cc2)nc2cccnc21` (stereo unspecified) had a melting point of 96 to 100 °C. Under `O=C(CC(=O)C(F)(F)F)Nc1cc(-c2ccsc2)n[nH]1` stands 251 to 253 °C; under `OCc1c(Cl)ccc2nnsc12`, 138 to 140 °C. In turn, `CN1CC(CCCl)Oc2ccc([N+](=O)[O-])cc2C1=S` (stereo unspecified) had a melting point of 153 to 155 °C. `CCCCCCc1ccc2c(c1)[nH]c1cc(COC(c3ccccc3)(c3ccccc3)c3ccccc3)ccc12` registered a melting point of 155 to 156 °C. Under `COC(=NC(=O)Nc1ccc(OC(F)(F)F)cc1)c1ccccc1Cl` stands 148 to 149 °C; under `COc1ccc(CC(=NNS(=O)(=O)c2ccc(C)cc2)c2cc(OC)cc(OC)c2)cc1`, 120 to 121 °C. Under `CCCOc1ccc(C2=NN(C(=O)Nc3ccc(OC(F)(F)F)cc3)CC2N(C)C(=O)OC)cc1` (stereo unspecified) stands 153 to 155 °C; under `CCOC(=O)C1C(=O)Nc2ccccc2SC1c1ccc(Cl)cc1` (stereo unspecified), 206 °C; under `O=C1Nc2ncccc2C12COc1cc3c(cc12)OCCO3` (stereo unspecified), above 250 °C. The compound `CCOCc1nc2c(N)nc3cc(-c4cn[nH]c4)ccc3c2n1CC(C)(C)O` came in with a melting point above 250 °C. For `CCCC(N)(CO)CCCc1ccc(Sc2cccc(OCc3ccccc3)c2)cc1Cl` (single isomer, unassigned; (+)), the melting point lay in the range of 55 to 57 °C. The compound `NC(=O)Cn1c(-c2ccc(Br)o2)nc2cccnc21` came in with a melting point above 250 °C. The figure for `O=C(CN1CCC(Cc2ccc(F)cc2)CC1)Nc1ccc2[nH]cnc2c1` is 204 °C; for `CN1CCC(c2c[nH]c3ccc(NC(=O)c4ccncc4)nc23)CC1` it is 126 to 128 °C; for `Cc1onc(-c2ccccc2)c1-c1[nH]c2ccccc2c1CCC(=O)N(C)C` it is 174 to 177 °C. Under `CC(C)(C)COc1cccc(C[C@@H](NC(=O)c2ccc(F)c3ccccc23)[C@@H](O)c2cccc(Cl)c2)c1` (racemic) stands 165 to 166 °C; under `Cc1c(-c2ccc(NC(=O)OCC(C)C)cc2)nc2n1CCc1ccccc1C2OC1CCN(C)CC1` (stereo unspecified), 196 °C; under `COC(Cc1ccc(I)cc1)c1ccc(I)cc1` (stereo unspecified), 62 to 64 °C. As to `CC(C)OC(=O)c1cc(-c2nn(C)c(C(F)(F)F)c2C=O)c(F)cc1Cl`, the melting point stood at 90 °C. Consider `COc1cc(N2CCN(Cc3ccccc3)CC2)c2nccc(C)c2c1`, for which the melting point fell in the range of 154 to 155 °C.

`CN1C(O)=C(C(=O)Nc2ccc(Cl)cc2)c2ccsc2S1(=O)=O` had a melting point of 202 to 204 °C. `Cc1ccc2[nH]c3c(C(=O)O)cccc3c2c1Cl` gave a melting point of 305 °C. Under `NS(=O)(=O)c1ccc(-c2cnn(Cc3ccccc3)c(=O)c2Cc2ccc(F)cc2)cc1` stands 120 to 123 °C. The compound `Cc1cn2ccc(N)c(Br)c2n1` registered a melting point of 158 to 160 °C.

With `O[C@@H]1c2ccccc2CN2CCC[C@@H]12` (relative stereo), the melting point was 131 to 133 °C. In turn, `COc1ccc2c(c1)C(=O)Cc1c(cccc1C(=O)O)S2` registered a melting point of 157 to 160 °C. Regarding `C=CCC(C#N)(c1ccc(F)cc1)c1ccccc1F` (stereo unspecified), the melting point was 215 to 219 °C. `COC(=O)CCC(=O)c1ccc(C)cc1OCC1CO1` (stereo unspecified) returned a melting point of 61.5 to 63 °C.

For the compound `CCN(CC)C(=O)c1nc2n(n1)-c1ccc(Cl)cc1C(c1ccccc1)=NC2`, the melting point fell in the range of 175 to 177 °C. Under `O=C(O)COc1cccc2c1CCc1sc(S(=O)(=O)CCC(c3ccccc3)c3ccccc3)nc1-2` stands 175 to 176 °C. In turn, `CCCC1(C)C(=O)N(COC(=O)c2c(Cl)cccc2Cl)S(=O)(=O)N1C` (stereo unspecified) had a melting point of 93 to 95 °C. The compound `COCN(c1cccc2cc(-c3ncnn3C)n(COC)c12)S(=O)(=O)c1cccs1` showed a melting point of 110 to 111 °C. The compound `ONCc1cccc(I)c1` came in with a melting point of 63 to 70 °C. Under `COCc1nc(N)nc(N)c1-c1cc(Cl)cc(Cl)c1` stands 228 to 230 °C; under `O=C(O)Cc1cccc2c(-c3ccc(F)cc3)onc12`, 170 to 171 °C; under `COc1ccccc1-c1ccc2c(c1)CCCc1c-2nc2ccc(F)cc2c1C(=O)O`, above 300 °C. Compound `CC(=O)Nc1ccc(CN2CCC(C(c3ccccc3)c3ccccc3)CC2)cc1` had a melting point of 182 to 183 °C.

The compound `O=C1c2ccccc2CCN1O` displayed a melting point of 95 to 96 °C. In the case of `CC(=O)SCC(Cc1ccccc1)C(=O)Nc1cc(C(=O)O)ccc1O` (stereo unspecified), the melting point was in the range of 202 to 206 °C. Under `CC(C)(C)c1ccc([C@@H]2C[C@H]3C=C(c4c[nH]c(-c5ccc(F)cc5)c4-c4ccncc4)CCN3C2)cc1` stands 226 to 228 °C; under `COc1cc(NN)c(F)cc1C#N`, 155 to 156 °C; under `Cc1cc(F)ccc1-c1nc(NCCO)nc2c1CCC(=O)N2c1ccccc1F`, 120 to 124 °C.

The compound `CC(=O)N(C#N)CCCCCCN(C#N)C(C)=O` gave a melting point of 59 to 61 °C. `CC(C)c1ccc(N(Cc2cn[nH]c2)C(=O)C2CCCc3c(O)cccc32)cc1` (stereo unspecified) registered a melting point of 247 °C.

As to `O=CNC[C@H](O)C(=O)OC=O`, the melting point lay within 140 to 142 °C. The figure for `Cc1noc(NS(=O)(=O)c2ccsc2C(N)=O)c1Br` is 168 to 170 °C. `O=C(Cc1ccc(F)cc1)N1C(=O)OC[C@@H]1Cc1ccccc1` came in with a melting point of 64 to 66 °C.

For the origin of these results see a melting point compilation (Tetko et al.; mined from patent text by program, amines drawn as free bases though some values may be those of a salt).
